According to PubChem BioAssay AID1963976 (Molecular Pharmacology Branch, DTP, NCI, 2024):
Values joined by “and” are separate entries in the source; they are usually repeats but may differ in a detail not shown here. Equal entries are not always repeated.

Test system: 435261-313-R-J1-PDC tumor spheroid viability
Experiment: Anticancer human tumor 435261-313-R-J1-PDC patient-derived colon adenocarcinoma cell line growth inhibition [PI3K]
Conditions: spheroids with HUVEC and MSC; for IC50: curve of first compound; for viability, T/C: stronger effect = lower value
Method in brief: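 Viability of mixed-cell spheroids was determined after exposure to pairwise combinations, one partner being inavolisib, alpelisib, duvelisib or copanlisib. Highest tested concentration matched clinical Cmax where known and 10 microM where not, descending in half-log steps.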

[1] = second compound 0.00316 µM, first compound 0.0316 µM
[2] = second compound 0.00316 µM, first compound 0.1 µM
[3] = second compound 0.00316 µM, first compound 0.316 µM
[4] = second compound 0.00316 µM, first compound 1 µM
[5] = second compound 0.00316 µM, first compound 3.16 µM
[6] = second compound 0.00316 µM, first compound 10 µM
[7] = second compound 0.01 µM, first compound 0.0316 µM
[8] = second compound 0.01 µM, first compound 0.1 µM
[9] = second compound 0.01 µM, first compound 0.316 µM
[10] = second compound 0.01 µM, first compound 1 µM
[11] = second compound 0.01 µM, first compound 3.16 µM
[12] = second compound 0.01 µM, first compound 10 µM
[13] = second compound 0.0316 µM, first compound 0.0316 µM
[14] = second compound 0.0316 µM, first compound 0.1 µM
[15] = second compound 0.0316 µM, first compound 0.316 µM
[16] = second compound 0.0316 µM, first compound 1 µM
[17] = second compound 0.0316 µM, first compound 3.16 µM
[18] = second compound 0.0316 µM, first compound 10 µM
[19] = second compound 0.1 µM, first compound 0.0316 µM
[20] = second compound 0.1 µM, first compound 0.1 µM
[21] = second compound 0.1 µM, first compound 0.316 µM
[22] = second compound 0.1 µM, first compound 1 µM
[23] = second compound 0.1 µM, first compound 3.16 µM
[24] = second compound 0.1 µM, first compound 10 µM
[25] = second compound 0.316 µM, first compound 0.0316 µM
[26] = second compound 0.316 µM, first compound 0.1 µM
[27] = second compound 0.316 µM, first compound 0.316 µM
[28] = second compound 0.316 µM, first compound 1 µM
[29] = second compound 0.316 µM, first compound 3.16 µM
[30] = second compound 0.316 µM, first compound 10 µM
[31] = second compound 1 µM, first compound 0.0316 µM
[32] = second compound 1 µM, first compound 0.1 µM
[33] = second compound 1 µM, first compound 0.316 µM
[34] = second compound 1 µM, first compound 1 µM
[35] = second compound 1 µM, first compound 3.16 µM
[36] = second compound 1 µM, first compound 10 µM
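Note: spheroids exposed to compounds for 7 days.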

CC(C)NCC(C(=O)N1CCN(c2ncnc3c2C(C)CC3O)CC1)c1ccc(Cl)cc1 (configuration not stated) + COc1c(OCCCN2CCOCC2)ccc2c3n(c(=NC(=O)c4cnc(N)nc4)nc12)CCN3
IC50 (second compound 0.00316 µM): 765 nM | IC50 (second compound 0.01 µM): 664 nM | IC50 (second compound 0.0316 µM): < 31.6 nM | IC50 (second compound 0.1 µM): < 31.6 nM | IC50 (second compound 0.316 µM): < 31.6 nM | IC50 (second compound 1 µM): < 31.6 nM | viability, T/C [1]: 77.5% | viability, T/C [2]: 57.4% | viability, T/C [3]: 67.4% | viability, T/C [4]: 45% | viability, T/C [5]: 25.9% | viability, T/C [6]: 18.1% | viability, T/C [7]: 35.5% | viability, T/C [8]: 72.5% | viability, T/C [9]: 53.8% | viability, T/C [10]: 45.8% | viability, T/C [11]: 37.2% | viability, T/C [12]: 22.3% | viability, T/C [13]: 29% | viability, T/C [14]: 24.9% | viability, T/C [15]: 40.3% | viability, T/C [16]: 17.9% | viability, T/C [17]: 17.2% | viability, T/C [18]: 13.7% | viability, T/C [19]: 16.9% | viability, T/C [20]: 13.9% | viability, T/C [21]: 18.2% | viability, T/C [22]: 14.3% | viability, T/C [23]: 14.1% | viability, T/C [24]: 8.48% | viability, T/C [25]: 8.02% | viability, T/C [26]: 10% | viability, T/C [27]: 8.48% | viability, T/C [28]: 7.53% | viability, T/C [29]: 6.85% | viability, T/C [30]: 3.75% | viability, T/C [31]: 3.46% | viability, T/C [32]: 4.26% | viability, T/C [33]: 3.88% | viability, T/C [34]: 3.78% | viability, T/C [35]: 3.18% | viability, T/C [36]: 1.67%

CC(C)n1nc(-c2ccc3oc(N)nc3c2)c2c(N)ncnc21 + Cc1nc(NC(=O)N2CCCC2C(N)=O)sc1-c1ccnc(C(C)(C)C(F)(F)F)c1
IC50 (second compound 0.0316 µM): 26.3 nM | IC50 (second compound 0.1 µM): 20.2 nM | IC50 (second compound 0.316 µM): 3.58 nM | IC50 (second compound 1 µM): < 0.316 nM | IC50 (second compound 3.16 µM): < 0.316 nM | IC50 (second compound 10 µM): < 0.316 nM | viability, T/C (second compound 0.0316 µM, first compound 0.000316 µM): 83.6% | viability, T/C (second compound 0.0316 µM, first compound 0.001 µM): 93% | viability, T/C (second compound 0.0316 µM, first compound 0.00316 µM): 76.7% | viability, T/C (second compound 0.0316 µM, first compound 0.01 µM): 47.9% | viability, T/C [13]: 62% | viability, T/C [14]: 13.6% | viability, T/C (second compound 0.1 µM, first compound 0.000316 µM): 76.9% | viability, T/C (second compound 0.1 µM, first compound 0.001 µM): 71.1% | viability, T/C (second compound 0.1 µM, first compound 0.00316 µM): 94.3% | viability, T/C (second compound 0.1 µM, first compound 0.01 µM): 65.6% | viability, T/C [19]: 38.6% | viability, T/C [20]: 15.4% | viability, T/C (second compound 0.316 µM, first compound 0.000316 µM): 46.4% | viability, T/C (second compound 0.316 µM, first compound 0.001 µM): 67.7% | viability, T/C (second compound 0.316 µM, first compound 0.00316 µM): 45.8% | viability, T/C (second compound 0.316 µM, first compound 0.01 µM): 40% | viability, T/C [25]: 18.3% | viability, T/C [26]: 12.8% | viability, T/C (second compound 1 µM, first compound 0.000316 µM): 30.6% | viability, T/C (second compound 1 µM, first compound 0.001 µM): 30.5% | viability, T/C (second compound 1 µM, first compound 0.00316 µM): 30.3% | viability, T/C (second compound 1 µM, first compound 0.01 µM): 20.2% | viability, T/C [31]: 19.6% | viability, T/C [32]: 9.5% | viability, T/C (second compound 3.16 µM, first compound 0.000316 µM): 13.1% | viability, T/C (second compound 3.16 µM, first compound 0.001 µM): 23.9% | viability, T/C (second compound 3.16 µM, first compound 0.00316 µM): 21.7% | viability, T/C (second compound 3.16 µM, first compound 0.01 µM): 19.1% | viability, T/C (second compound 3.16 µM, first compound 0.0316 µM): 12.1% | viability, T/C (second compound 3.16 µM, first compound 0.1 µM): 7.83% | viability, T/C (second compound 10 µM, first compound 0.000316 µM): 10.6% | viability, T/C (second compound 10 µM, first compound 0.001 µM): 10.1% | viability, T/C (second compound 10 µM, first compound 0.00316 µM): 9.88% | viability, T/C (second compound 10 µM, first compound 0.01 µM): 8.69% | viability, T/C (second compound 10 µM, first compound 0.0316 µM): 4.8% | viability, T/C (second compound 10 µM, first compound 0.1 µM): 4.03%

CCN1CCN(Cc2ccc(Nc3ncc(F)c(-c4cc(F)c5nc(C)n(C(C)C)c5c4)n3)nc2)CC1
viability, T/C (compound 0.00316 µM): 78.8% and 104% and 106% | viability, T/C (compound 0.01 µM): 94.5% and 76.5% and 82.8% | viability, T/C (compound 0.0316 µM): 61.7% and 67.7% and 78.4% | viability, T/C (compound 0.1 µM): 48.9% and 58.6% and 55.6% | viability, T/C (compound 0.316 µM): 47.7% and 44.3% and 50.4% | viability, T/C (compound 1 µM): 40.8% and 56.3% and 51.8%

C[C@@H](NC(=O)c1ncnc(N)c1Cl)c1ncc(C(=O)Nc2cc(C(F)(F)F)c(Cl)cn2)s1 + CC(Nc1ccc2c(c1)OCCn1cc(N3C(=O)OCC3C(F)F)nc1-2)C(N)=O
IC50 (second compound 0.00316 µM): > 10000 nM | IC50 (second compound 0.01 µM): > 10000 nM | IC50 (second compound 0.0316 µM): > 10000 nM | IC50 (second compound 0.1 µM): 4550 nM | IC50 (second compound 0.316 µM): < 31.6 nM | IC50 (second compound 1 µM): < 31.6 nM | viability, T/C [1]: 168% | viability, T/C [2]: 171% | viability, T/C [3]: 154% | viability, T/C [4]: 148% | viability, T/C [5]: 158% | viability, T/C [6]: 116% | viability, T/C [7]: 136% | viability, T/C [8]: 152% | viability, T/C [9]: 191% | viability, T/C [10]: 135% | viability, T/C [11]: 140% | viability, T/C [12]: 108% | viability, T/C [13]: 99.4% | viability, T/C [14]: 126% | viability, T/C [15]: 155% | viability, T/C [16]: 158% | viability, T/C [17]: 112% | viability, T/C [18]: 85.4% | viability, T/C [19]: 74.7% | viability, T/C [20]: 72% | viability, T/C [21]: 115% | viability, T/C [22]: 77.2% | viability, T/C [23]: 58.6% | viability, T/C [24]: 32.5% | viability, T/C [25]: 51.3% | viability, T/C [26]: 47.6% | viability, T/C [27]: 36.9% | viability, T/C [28]: 39.3% | viability, T/C [29]: 35.8% | viability, T/C [30]: 9.29% | viability, T/C [31]: 29.2% | viability, T/C [32]: 33.5% | viability, T/C [33]: 21.3% | viability, T/C [34]: 27% | viability, T/C [35]: 23% | viability, T/C [36]: 6.01%
